Patent US20180118721A1, “PYRIMIDINE DERIVATIVES” (Merck Patent GmbH, priority 2015, published 2018)
Read-outs that look alike come from different tables or passages of the source.

Tests used:
[1] = biological target: T1, humanMTH1 (aminoacids 42 to 197) (Homo sapiens, UniProt P36639); test: Binding affinities and kinetics on MTH1 surfaces by surface plasmon resonance (SPR); settings: for Kd: SPR, Biacore4000, 25° C., Table 1, grouped, read-out: KD IC50; for residence time: on MTH1, calculated on the basis of the KD values
T1 construct: humanMTH1 (aminoacids 42 to 197); His tag at the N-terminus; purchased Abnova ab99390; host or cells: E. coli
Procedure: The SPR experiments were performed using a Biacore4000 instrument. […] HumanMTH1 was immobilized on Biacore CM5 chips at 25° C. and a flow rate of 10 μL/min using amine coupling at pH 5.5 and in presence of 1 μM MSC2567771B-1 according to Biacore's standard protocol. MTH1 was applied at a concentration of 10 μg/mL and depending on the duration of the injection time immobilization levels between 500 and 2,000 RU were obtained. Sample compounds were applied in form of titration series with a doubling of concentration at each subsequent injection. In general, 10 concentrations were injected covering a dilution range of 500 fold. Before and after each of these titration series the binding capability of the surface was controlled by the injection of the positive control S-Crizotinib at a fixed concentration of 2 μM. Kinetic titration experiments were performed at 25° C. with a flow rate of 30 μL/min, a sample contact time of 90 sec and a dissociation time of 420 sec in running buffer (20 mM Tris-HCl (Tris(hydroxymethyl)-aminomethane HCl) pH 7.40, 150 mM NaCl, 5 mM MgCl2, 1 mM DTT (dithiothreitol), 0.1 mM EGTA (ethylene glycol tetraacetic acid), 0.05% Tween 20) containing 2% DMSO (dimethyl sulfoxide). Buffer injections identical to the sample injections were executed at the beginning of the successive series for the purpose of double referencing. Solvent correction cycles (eight correction points, 1.4%-2.8% DMSO) were run at the same intervals. For surface conditioning ten start-up cycles (buffer injections) were run. Data points were collected at a sample rate of 10 Hz.
Data sets were processed and analyzed using the software Biacore4000 Evaluation, version 1.0. Solvent corrected and double-referenced association and dissociation phase data were fitted to a simple 1:1 interaction model with mass transport limitations.
Measured values are indicated as KD IC50 in the Table below.

[2] = biological target: T2, purified human recombinant MTH1 (human MTH1, residues 42-197) (Homo sapiens, UniProt P36639); test: MTH1 enzymatic assay (luminescence-based, PPiLight); format: biochemical; settings: 6 μM 8-oxo-dGTP, Table 1, grouped
T2 construct: human MTH1, residues 42-197, Uniprot-ID: P36639, expressed in E. coli; made in house; host or cells: E. coli
Procedure: The IC50 value was determined by a MTH1 enzymatic assay. The assay comprises the principal steps of incubating a mixture of MTH1, the compound in question at different concentrations and 8-oxo-2′-deoxyguanosine-5′-triphosphate (8-oxo-dGTP) in assay buffer. Nucleotide triphosphate hydrolysis by MTH1, i.e. decomposition of 8-oxo-2′-deoxyguanosine-5′-triphosphate, produces 8-oxo-2′-deoxyguanosine-5′-monophosphate (8-oxo-dGMP) and pyrophosphate (PPi). The amount of generated pyrophosphate (PPi) is then measured by a bioluminescent reaction. In detail: The MTH1 (human mutT homologue 1) enzymatic assay is performed as a luminescence-based 384-well assay. […] The assay buffer contains 100 mM Tris-acetate pH 7.5, 40 mM NaCl, 10 mM Mg(OAc)2, 0.005% Tween 20 and 2 mM dithiothreitol (DTT). […] Then, in a second step, the substrate 8-oxo-dGTP is added and the reaction mixture is incubated for 30 minutes at 22° C. The pharmacologically relevant assay volume is 5 PI. The final concentrations in the assay during incubation of the reaction mixture are 0.1-0.2 nM, typically 0.1 nM, MTH1 and 6 μM 8-oxo-dGTP. After incubation of the reaction mixture, the generation of pyrophosphate (PPi) as a result of nucleotide triphosphate (8-oxo-dGTP) hydrolysis by MTH1 is detected using the PPiLight inorganic pyrophosphate assay kit (Lonza) (third step). 2 to 5 μl, such as 3 to 5 μl, typically 3 or 4 μl, for instance 4 μl, of a 1:1 mixture of PPiLight converting reagent (AMP) and PPiLight detection reagent are added to the reaction mixture. In the presence of pyrophosphate, the detection reagent catalyzes the conversion of AMP to ATP. Luciferase then produces light from the newly formed ATP and luciferin. The amount of light produced is directly proportional to the amount of PPi in the sample. Following signal development for 1 h the plates are analysed in an EnVision (PerkinElmer) microplate reader using the ultra sensitive luminescence option. Data are processed employing the Genedata Screener software. In particular, IC50 values are determined in the usual manner (using the Hill Equation) by fitting a dose-response curve to the data points using nonlinear regression analysis.
Hill Equation: Y=S0+(Sinf−S0)/(1+(10^logIC50/10^c)^n); Y: luminescence signal (response), S0: activity level at zero concentration of test compound, Sinf=activity level at infinite concentration, Hill coefficient n=measure of the slope at IC50, c=concentration in logarithmic units corresponding to the values on the x-axis of the dose response curve plot

Row | Kd [1] | IC50 [2] | SMILES | residence time ([1]; read-out: Residence time) | residence time [1]
1 | 1 to 100 nM | 1 to 100 nM | Nc1nc(NC2CC2)cc(N2CCC[C@H]2Cc2ccccc2Cl)n1 [Example 48, 6-[(S)-2-(2-Chloro-benzyl)-pyrrolidin-1-yl]-N4-cyclopropyl-pyrimidine-2,4-diamine] |  | 
2 | 1 to 100 nM | < 1 nM | Nc1nc(NC2CC2)cc(N2CC[C@@](O)(C(F)(F)F)C2)n1 [Example 49, (S)-1-(2-Amino-6-cyclopropylamino-pyrimidin-4-yl)-3-trifluoromethyl-pyrrolidin-3-ol] |  | 
3 | 1 to 100 nM | 1 to 100 nM | Nc1nc(NC2CC2)cc(N2CC[C@](O)(C(F)(F)F)C2)n1 [Example 50, (R)-1-(2-Amino-6-cyclopropylamino-pyrimidin-4-yl)-3-trifluoromethyl-pyrrolidin-3-ol] |  | 
4 | 1 to 100 nM | < 1 nM | Nc1nc(NC2CC2)cc(N2CCCc3ccccc32)n1 [Example 51, N4-Cyclopropyl-6-(3,4-dihydro-2H-quinolin-1-yl)-pyrimidine-2,4-diamine] |  | 
5 | 1 to 100 nM | 1 to 100 nM | C[C@@]1(O)CCN(c2cc(NC3CC3)nc(N)n2)C1 [Example 52, (R)-1-(2-Amino-6-cyclopropylamino-pyrimidin-4-yl)-3-methyl-pyrrolidin-3-ol] |  | 
6 | 1 to 100 nM | 1 to 100 nM | C[C@]1(O)CCN(c2cc(NC3CC3)nc(N)n2)C1 [Example 53, (S)-1-(2-Amino-6-cyclopropylamino-pyrimidin-4-yl)-3-methyl-pyrrolidin-3-ol] |  | 
7 | 1 to 100 nM | 1 to 100 nM | CC1Cc2ccccc2N1c1cc(NC2CC2)nc(N)n1 (stereo not drawn) [Example 58, N4-Cyclopropyl-6-(2-methyl-2,3-dihydro-indol-1-yl)-pyrimidine-2,4-diamine] |  | 
8 | 1 to 100 nM | 1 to 100 nM | CNc1cc(N2CC[C@H](O)C2)nc(N)n1 [Example 62, (S)-1-(2-Amino-6-methylamino-pyrimidin-4-yl)-pyrrolidin-3-ol] |  | 
9 | 1 to 100 nM | < 1 nM | Nc1nc2c(c(N3CCC(F)(F)C3)n1)CCCN2 [Example 63, 4-(3,3-Difluoro-pyrrolidin-1-yl)-5,6,7,8-tetrahydro-pyrido[2,3-d]pyrimidin-2-ylamine] |  | 
10 | 1 to 100 nM | 1 to 100 nM | Nc1nc(NCC2CCCC2)cc(N2CCC(F)(F)C2)n1 [Example 76, N4-Cyclopentylmethyl-6-(3,3-difluoro-pyrrolidin-1-yl)-pyrimidine-2,4-diamine] |  | 
11 | 1 to 100 nM | 1 to 100 nM | COc1ccccc1CCNc1cc(N2CCC(F)(F)C2)nc(N)n1 [Example 77, 6-(3,3-Difluoro-pyrrolidin-1-yl)-N4-[2-(2-methoxy-phenyl)-ethyl]-pyrimidine-2,4-diamine] |  | 
12 | 1 to 100 nM | < 1 nM | NC(=O)[C@H]1CCN(c2nc(N)nc3c2CCCN3)C1 [Example 78, (S)-1-(2-Amino-5,6,7,8-tetrahydro-pyrido[2,3-d]pyrimidin-4-yl)-pyrrolidine-3-carboxylic acid amide-formiate] |  | 
13 | 1 to 100 nM | < 1 nM | CNc1cc(N2CCCCC2c2cc3ccccc3o2)nc(N)n1 (stereo not drawn) [Example 81, 6-(2-Benzofuran-2-yl-piperidin-1-yl)-N4-methyl-pyrimidine-2,4-diamine] |  | 
14 | 1 to 100 nM | < 1 nM | CNc1cc(N2CCCC2Cc2ccc(Cl)cc2)nc(N)n1 (stereo not drawn) [Example 84, 6-[2-(4-Chloro-benzyl)-pyrrolidin-1-yl]-N4-methyl-pyrimidine-2,4-diamine] |  | 
15 | < 1 nM | < 1 nM | CNc1cc(N2CCCC2Cc2cccc(Cl)c2)nc(N)n1 (stereo not drawn) [Example 85, 6-[2-(3-Chloro-benzyl)-pyrrolidin-1-yl]-N4-methyl-pyrimidine-2,4-diamine] |  | 
16 | > 100 nM | > 100 nM | Nc1nc(NC2CC2)cc(N2C[C@H](O)CC2=O)n1 [Example 86, (R)-1-(2-Amino-6-cyclopropylamino-pyrimidin-4-yl)-4-hydroxy-pyrrolidin-2-one] |  | 
17 | 1 to 100 nM | 1 to 100 nM | CCCCOC(=O)CC1CCCN1c1cc(NC2CC2)nc(N)n1 (stereo not drawn) [Example 87, [1-(2-Amino-6-cyclopropylamino-pyrimidin-4-yl)-pyrrolidin-2-yl]-acetic acid butyl ester] |  | 
18 | > 100 nM | > 100 nM | Nc1nc(NC2CC2)cc(N2CCCC2C(=O)NCc2ccccc2Cl)n1 (stereo not drawn) [Example 88, 1-(2-Amino-6-cyclopropylamino-pyrimidin-4-yl)-pyrrolidine-2-carboxylic acid 2-chloro-benzylamide] |  | 
19 | > 100 nM | > 100 nM | Nc1nc(NC2CC2)cc(N2CCCC2=O)n1 [Example 94, 1-(2-Amino-6-cyclopropylamino-pyrimidin-4-yl)-pyrrolidin-2-one] |  | 
20 | > 100 nM | 1 to 100 nM | Nc1nc(NC2CC2)cc(N2CCCC2CC(=O)O)n1 (stereo not drawn) [Example 97, [1-(2-Amino-6-cyclopropylamino-pyrimidin-4-yl)-pyrrolidin-2-yl]acetic acid] |  | 
21 | 1 to 100 nM | < 1 nM | CNc1cc(N2CCCC2Cc2cccc(C)c2)nc(N)n1 (stereo not drawn) [Example 112, N4-Methyl-6-[2-(3-methyl-benzyl)-pyrrolidin-1-yl]-pyrimidine-2,4-diamine] |  | 

Row | SMILES | Kd [1] | IC50 [2] | residence time ([1]; read-out: Residence time) | residence time [1]
22 | CNc1cc(N2CCC[C@H]2Cc2ccccc2OC)nc(N)n1 [Example 92, 6-[(S)-2-(2-Methoxy-benzyl)-pyrrolidin-1-yl]-N4-methyl-pyrimidine-2,4-diamine] |  | < 1 nM | ≥ 10 min | 
23 | CNc1cc(N2CCCCC2Cc2ccc(OC)cc2)nc(N)n1 (stereo not drawn) [Example 95, 6-[2-(4-Methoxy-benzyl)-piperidin-1-yl]-N4-methyl-pyrimidine-2,4-diamine] |  | < 1 nM | ≥ 10 min | 
24 | CNc1cc(N2CCCC2Cc2ccccc2Cl)nc(N)n1 (stereo not drawn) [Example 98, 6-[2-(2-Chloro-benzyl)-pyrrolidin-1-yl]-N4-methyl-pyrimidine-2,4-diamine] | 1 to 100 nM | < 1 nM | ≥ 10 min | 
25 | CNc1cc(N2CCCCC2Cc2ccccc2OC)nc(N)n1 (stereo not drawn) [Example 100, 6-[2-(2-Methoxy-benzyl)-piperidin-1-yl]-N4-methyl-pyrimidine-2,4-diamine] | 1 to 100 nM | < 1 nM | ≥ 10 min | 
26 | CNc1cc(N2CCCCC2Cc2ccccc2Cl)nc(N)n1 (stereo not drawn) [Example 105, 6-[2-(2-Chloro-benzyl)-piperidin-1-yl]-N4-methyl-pyrimidine-2,4-diamine] | 1 to 100 nM | < 1 nM | ≥ 10 min | 
27 | CNc1cc(N2CC(C(=O)NCCc3ccc(S(=O)(=O)F)cc3)C2)nc(N)n1 [Example 108, 4-(2-{[1-(2-Amino-6-methylamino-pyrimidin-4-yl)-azetidine-3-carbonyl]-amino}-ethyl)-benzenesulfonyl fluoride] |  | < 1 nM |  | ≥ 10 min
